Laboratory results as given in paper PMC8238065, “Prodrug-based nano-delivery strategy to improve the antitumor ability of carboplatin in vivo and in vitro” (Drug Delivery, 2021).

Key:
H460 cells = assay: MTT cytotoxicity, H460 cells; assay type: cell-based; conditions: 500 μM, 72 h
Experimental: The NSCLC A549 and H460 cells were incubated in 1640 medium containing 10% fetal bovine serum albumin, and these cells were stored in a humidified environment of 37 °C and 5% carbon dioxide.
In order to investigate the cytotoxicity of PEG-CAR-C16 micelles, the cell inhibition rates of A549 and H460 cells were determined by the MTT. Primarily, A549 and H460 cell lines were respectively cultured in 1640 culture medium, then transferred into a 96-well plate and incubated for 24 h under the condition of 37 °C, 5% CO2. Then, CAR and PEG-CAR-C16 micelles solution with different concentrations (15–500 μM) were added into the 96-well plate and incubated for 24, 48, and 72 h, respectively. After added with 10 μL of MTT solution to each well, the cells were incubated at 37 °C for 4 h again. Finally, the solution was removed, 100 μL of DMSO was then added to dissolve the produced formazan crystals and the […] were recorded by microplate reader. The cytotoxicity of PEG-CAR-C16 micelles could be expressed by cell inhibition rate.

H460 tumor = assay: In vivo antitumor experiment in H460 tumor-bearing nude mice; conditions: tail vein injection twice a week for two weeks, CAR 0.75 and 1.5 mg·kg^−1, equivalent PEG-CAR-C16 5.5 and 11.0 mg·kg^−1
Experimental: The female nude mice models (5–6 weeks old, 18–22 g) used in the experiment were purchased from Unilever (London, UK), and the experiment was conducted in accordance with the principle of protection of experimental animals. To establish animal model of NSCLC, 0.2 mL of H460 cells with concentration density about 1.0 × 10^7/mL were inoculated to the left axilla of the mice. The volume of tumors was measured and recorded using a vernier caliper.
When the average tumor volume of nude mice inoculated with H460 cells grown to about 100 mm^3, the mice were randomly divided into […] (n = 6) including normal saline group (I, NS), CAR group (II, 0.75 mg·kg^−1), equivalent PEG-CAR-C16 group (IV, 5.5 mg·kg^−1), CAR group (III, 1.5 mg·kg^−1), equivalent PEG-CAR-C16 group (V, 11.0 mg·kg^−1). The mice in each group were given drugs by tail vein injection twice a week for two weeks. The volume of tumor was measured every two days and calculated according to the long diameter a and the short diameter b. The tumor inhibition rate is expressed as follows: tumor volume (Vt)=a×b^2/2.

[1] = In vivo pharmacokinetics of Pt after intravenous injection (ICP-MS); design: species or system Wistar rats; conditions: Pt in rats, equivalent CAR dose 1.5 mg·kg^−1
Experimental: To conduct the pharmacokinetic tests, six female Wistar rats (Harlan, Israel, 200 ± 20 g) were randomly administered into two groups primarily. The CAR solution was prepared by dissolving CAR in 5% glucose solution, and the PEG-CAR-C16 polymer micelles were prepared by hydrating the thin film using 5% glucose solution during the micelle formation. Then CAR and PEG-CAR-C16 polymer micelles (the equivalent CAR does was 1.5 mg·kg^−1) were injected intravenously. After collected from the treated […] within a specified time point, the blood samples were centrifuged at 3000 rpm for 10 min, and then the centrifuged samples were frozen at −20 °C for further use. All the blood samples were processed by microwave digestion and then the Pt concentration was examined by using inductively coupled plasma mass spectrometry (ICP-MS). The representative pharmacokinetic parameters were calculated by DAS2.0.

SMILES: N.N.O=C([O-])C1(C(=O)[O-])CCC1.[Pt+2] [CAR, Carboplatin]
- cell viability rate (H460 cells): 51.6%
- tumor volume growth / tumor inhibition effect (H460 tumor): could control the growth of tumor volume effectively
- AUC0–∞ [1]: 4.84 ± 1.58 mg·L^–1·h
- CL [1]: 0.57 ± 0.11 L·h^–1·kg^–1
- MRT0–∞ [1]: 4.72 ± 0.91 h
- Vd [1]: 0.66 ± 0.15 L·kg^–1
- t1/2 [1]: 1.90 ± 1.91 h
